Source: article PMC6304418, “A Novel Compound Targeting Protease Receptor 1 Activators for the Treatment of Glioblastoma” (Frontiers in Neurology, 2018)
Where a SMILES comes first, the peptide text is derived from it. The star is where a group is joined. Tos = Cc1ccc(S(=O)(=O)*)cc1; CH2Cl = ClC*

Columns and labels:
U87 glioma cells = experiment: U87 glioma cell proliferation (XTT); format: cell-based, human; settings: 72 h
Method: CNS-1, C6, and U87 rat and human glioma cells were grown in Dulbecco's modified Eagle's medium (DMEM; Bet Haemek, Biological Industries, Israel) supplemented with 10% fetal bovine serum (Bet Haemek, Biological Industries, Israel) and 1% penicillin and streptomycin in a 5% CO2-humidified atmosphere.
Cell proliferation was evaluated using a 2.3-Bis-(2-methoxy-4-nitro-5-sulfophenyl)-2H-tetrazolium-5-carboxyanilide salt (XTT)-based cell proliferation assay kit (Bet Haemek, Biological Industries, Israel). U87 cells were seeded in 96-well plates (5 × 10^3 cells/well) and incubated for 24 h. The medium was then removed, the tested molecules (10^−13-10^−4 M final concentration) were added in FCS-free medium and introduced to the cells for 72 h. After choosing SIXAC as the leading molecule, it was tested in a similar way in CNS-1 cells (SIXAC 1 μM final concentration). XTT solution (50 μl) was added to each well and incubated for 3 h at 37°C. The optical density (OD) of each well was recorded at 450 and 630 nm in a microplate reader (Infinite M200, Tecan, Durham, NC, USA). Cell viability was expressed as the percentage (ODtest–ODblank)/(ODcontrol–ODblank), where ODtest is the optical density of cells exposed to SIXAC treatment, ODcontrol is the optical density of the control sample, and ODblank is the optical density of wells without glioma cells.

PAR1 = settings: use limited; ref [34] Gao et al., 2015; cited from earlier work
Source text: Numerous findings support the involvement of the thrombin-PAR1 pathway in glioma pathology ([8], [13], [18]). We have previously found a positive correlation between edema size and PAR1 expression in an animal model of GBM ([19]). […] In addition to the direct thrombin-PAR1 effects on glioma cells, PARs play a crucial role in the control of angiogenesis and vascular permeability by regulating the release of endostatin and vascular endothelial growth fac ...

[1] = test system: thrombin mediated PAR1 activation (pERK/ERK) in CNS-1 cells; experiment: ERK activation (pERK/ERK, Western blot) in CNS-1 cells; format: cell-based, rat; settings: thrombin 1 U/ml, 10 min, FCS-free; n = 3; control 1 ± 0.07; p < 0.03 vs. control
Method: Cells were seeded (1 × 10^6 cells/75 cm^2 flask) and incubated for 24 h. Then the medium was replaced by FCS-free medium for another 24 h. The cells were treated for 10 min with thrombin (1 U/ml), SIXAC (100 nM), a combination of thrombin and SIXAC or a FCS-free medium which was used as a control (n = 3 for each treatment). The cells were washed and lysed in RIPA buffer (containing in mM: 50 TRIS HCl pH 8, 150 NaCl, 1% NP-40, 0.5% sodium deoxycholate, and 0.1% SDS), a protease inhibitor cocktail (Merck Millipore 539134, 1:100), 0.1 mM sodium orthovanadate and 2 mM PMSF. The cells were scraped, collected and centrifuged (16,000g × 20 min) at 4°C. The supernatants were collected, and protein concentration was determined by means of a bicinchoninic acid (BCA) assay. Each sample (20 μg) was separated by SDS-polyacrylamide gel electrophoresis. The proteins were transferred onto nitrocellulose membranes. Membranes were incubated with mouse anti-phosphorylated Extracellular signal-Regulated Kinase (pERK) antibody (1:10,000, M8159, Sigma), for 1.5 h at room temperature (RT) and washed with Tris-buffered saline and 0.1% Tween 20 (TBST). Membranes were then incubated at RT with horseradish peroxidase-conjugated goat anti-mouse antibody (1:10,000, Jackson Immunoresearch Laboratories). […] Protein bands were detected by a peroxidase-based enhanced chemiluminescence (ECL) method. […]

Compound: Cc1ccc(S(=O)(=O)N[C@@H](CC(=O)O)C(=O)N2CCC[C@H]2C(=O)N[C@@H](CCCNC(=N)N)C(=O)CCl)cc1 [3AACK] (Tos-Asp-Pro-Arg-CH2Cl)
- U87 proliferation rate ("inhibit proliferation at a rate of") (U87 glioma cells; 10^−5M, FCS-free medium, mean ± SEM, 3AACK vs. 6AACK p < 0.035): 0.58 ± 0.046
- U87 proliferation inhibition, compared with 6AACK (U87 glioma cells; 10^−8M, p = 0.7): inhibits more efficiently the proliferation rate when compared to 6AACK at a concentration of 10^−8M, this was found to be non-significant

Compound: CCOC(=O)N[C@@H]1CC[C@@H]2[C@@H](C1)C[C@H]1C(=O)O[C@H](C)[C@H]1[C@H]2/C=C/c1ccc(-c2cccc(F)c2)cn1 [Vorapaxar]
- bleeding side-effects (PAR1): limited due to bleeding side-effects

Compound: thrombin
- pERK/ERK ratio, thrombin alone [1]: 2.09 ± 0.28
